Measurements as given in patent EP4790066A1, “GLP-1R/GIPR/GCGR TRIPLE AGONIST ANALOGUE AND USE THEREOF” (Shenzhen Bay Laboratory, priority 2023, dated 2025).
*1 amine or outer side, *2 acyl side, *3 side chain or, on linkers, in order; H or OH if unused. Where a SMILES comes first, the peptide text is derived from it. Bridges are numbered along the chain shown (N, C = ends). [ ]: non-standard residue; d: D form. X1 = O=C(O)CCCCCCCCCCCCCCCCCCC(=O)N[C@@H](CCCCNC(=O)COCCOCCNC(=O)COCCOCCNC(=O)CCC(=O)N(CCNC(=O)C[*:1])CCNC(=O)C[*:2])C(=O)O; Phe(2-F) = N[C@@H](Cc1ccccc1F)C(=O)O; αMeL = CC(C)C[C@](C)(N)C(=O)O; αMeK = C[C@](N)(CCCCN)C(=O)O; αMeS = C[C@](N)(CO)C(=O)O; Aib = CC(C)(N)C(=O)O

Experiments:
Type in all cases: cell-based
GLP-1R = target: T1, GLP-1R (Homo sapiens, UniProt P43220); assay: CreLuc method (CRE-luciferase reporter), HEK293/pGM-CREB-L-Luc/GLP-1R pool; conditions: 6 h incubation, read-out: EC50 (pM) for each receptor GLP-1R
T1 construct: expressed in transfected cells
T1 sequence (P43220 24-463, species assumed): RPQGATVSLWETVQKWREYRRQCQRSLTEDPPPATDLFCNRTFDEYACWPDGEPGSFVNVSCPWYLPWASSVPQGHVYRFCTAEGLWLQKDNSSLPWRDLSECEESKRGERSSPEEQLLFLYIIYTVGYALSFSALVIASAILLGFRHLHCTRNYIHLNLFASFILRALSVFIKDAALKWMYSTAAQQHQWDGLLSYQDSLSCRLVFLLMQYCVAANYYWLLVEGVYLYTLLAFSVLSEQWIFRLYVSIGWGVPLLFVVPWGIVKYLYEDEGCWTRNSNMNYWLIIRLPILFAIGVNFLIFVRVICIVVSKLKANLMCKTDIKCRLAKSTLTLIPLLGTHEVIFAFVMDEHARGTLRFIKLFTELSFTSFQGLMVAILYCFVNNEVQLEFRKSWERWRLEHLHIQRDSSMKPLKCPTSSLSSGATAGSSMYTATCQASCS
Summary of the method: (§1)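 Stable HEK293 pools co-expressing each receptor with a CRE-luciferase reporter were plated at 20,000 cells/well in freestyle medium and treated with compound dilution series for 6 h at 37 °C. Luminescence was read with ONE-GLO to derive EC50.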

GIPR [1] = target: T2, GIPR (Homo sapiens, UniProt P48546); assay: CreLuc method (CRE-luciferase reporter), HEK293/pGM-CREB-L-Luc/GIPR pool; conditions: 6 h incubation, read-out: EC50 (pM) for each receptor GIPR
T2 construct: expressed in transfected cells
T2 sequence (P48546 22-466): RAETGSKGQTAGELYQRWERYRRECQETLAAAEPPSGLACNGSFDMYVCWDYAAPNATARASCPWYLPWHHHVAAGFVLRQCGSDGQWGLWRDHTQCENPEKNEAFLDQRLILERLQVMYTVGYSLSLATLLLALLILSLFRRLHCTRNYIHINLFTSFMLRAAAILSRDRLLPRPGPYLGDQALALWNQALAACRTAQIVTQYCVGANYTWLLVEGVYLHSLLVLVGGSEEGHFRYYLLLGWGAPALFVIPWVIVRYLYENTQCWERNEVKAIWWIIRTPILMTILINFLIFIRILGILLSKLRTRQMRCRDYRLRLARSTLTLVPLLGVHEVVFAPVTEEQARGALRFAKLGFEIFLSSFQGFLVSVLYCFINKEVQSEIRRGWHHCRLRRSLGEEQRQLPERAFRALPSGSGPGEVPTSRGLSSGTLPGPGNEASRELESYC
Summary of the method: as §1

GCGR [2] = target: T3, GCGR (Homo sapiens, UniProt P47871); assay: CreLuc method (CRE-luciferase reporter), 293HEK/pGM-CREB-L-Luc/GCGR pool; conditions: 6 h incubation, read-out: EC50 (pM) for each receptor GCGR
T3 construct: expressed in transfected cells
T3 sequence (P47871 26-477, species assumed): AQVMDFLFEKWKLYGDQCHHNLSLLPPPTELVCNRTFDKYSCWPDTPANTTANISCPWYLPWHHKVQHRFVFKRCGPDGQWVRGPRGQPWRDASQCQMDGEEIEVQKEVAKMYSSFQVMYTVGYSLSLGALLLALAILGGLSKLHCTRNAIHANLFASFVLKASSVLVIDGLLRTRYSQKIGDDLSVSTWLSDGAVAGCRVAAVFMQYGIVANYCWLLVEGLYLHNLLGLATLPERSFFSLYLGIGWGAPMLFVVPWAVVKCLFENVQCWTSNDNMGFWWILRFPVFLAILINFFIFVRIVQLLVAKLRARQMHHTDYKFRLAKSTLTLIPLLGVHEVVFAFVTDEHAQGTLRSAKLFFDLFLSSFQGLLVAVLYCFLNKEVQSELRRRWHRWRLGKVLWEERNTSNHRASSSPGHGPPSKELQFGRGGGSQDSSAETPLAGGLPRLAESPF
Summary of the method: as §1

GIPR [3] = target: T2, GIPR; assay: cAMP method (HTRF cAMP detection kit), HEK293/pGM-CREB-L-Luc/GIP pool; conditions: read-out: EC50 (pM) for each receptor GIPR
Method: (§2) 2. Insulinotropic analogues can bind to target receptors on the cell membrane, activate the receptors, and induce release. The activity of the test substance can be determined using the HTRF method with a cAMP detection kit. Therefore, the cAMP method can be used to detect the target peptide derivatives (or polypeptide derivatives, i.e., TG1-TG86) prepared in Example 1 and Example 2. […] The test cell line was selected, treated with cAMP-specific trypsin for digestion. 3 mL of serum-free DMEM culture medium was added, and the cells were pipetted, resuspended, and counted. 5 µL of IBMX (prepared with serum-free DMEM medium, 0.5 mM) and test cells (5 µL/7500 cells/well) were added in a 384-well plate sequentially. The plate was incubated at 37°C under 5% CO2 for 30 min, followed by the addition of cAMP-d2 (5 µL, 1x) and Anti-cAMP-Cryptate (5 µL, 1x). The mixture was kept at room temperature for 1 h, after which the HTRF value was measured using a chemiluminescent microplate reader, and the determination result was recorded. […] Table 4: EC50 values for target peptide derivatives

GCGR [4] = target: T3, GCGR; assay: cAMP method (HTRF cAMP detection kit), HEK293/pGM-CREB-L-Luc/GCG pool; conditions: read-out: EC50 (pM) for each receptor GCGR
Method: as §2

Molecule `CC[C@H](C)[C@@H]1NC(=O)[C@H](Cc2ccccc2)NC(=O)[C@@H](NC(=O)C(C)(C)NC(=O)[C@H](CCC(N)=O)NC(=O)[C@H](C)NC(=O)[C@H](CCCCNC(C)=O)NC(=O)[C@](C)(CCCCN)NC(=O)[C@H](CC(=O)O)NC(=O)[C@H](CC(C)C)NC(=O)[C@](C)(CC(C)C)NC(=O)[C@@H](NC(=O)[C@](C)(CO)NC(=O)[C@H](Cc2ccc(O)cc2)NC(=O)[C@H](CC(=O)O)NC(=O)[C@H](CO)NC(=O)[C@@H](NC(=O)[C@H](Cc2ccccc2F)NC(=O)[C@@H](NC(=O)CNC(=O)[C@H](CCC(N)=O)NC(=O)C(C)(C)NC(=O)[C@@H](N)Cc2ccc(O)cc2)[C@@H](C)O)[C@@H](C)O)[C@@H](C)CC)CSCC(=O)NCCN(C(=O)CCC(=O)NCCOCCOCC(=O)NCCOCCOCC(=O)NCCCC[C@H](NC(=O)CCCCCCCCCCCCCCCCCCC(=O)O)C(=O)O)CCNC(=O)CSC[C@@H](C(=O)NCC(=O)NCC(=O)N2CCC[C@H]2C(=O)N[C@@H](CO)C(=O)N[C@@H](CO)C(=O)NCC(=O)N[C@@H](C)C(=O)N2CCC[C@H]2C(=O)N2CCC[C@H]2C(=O)N2CCC[C@H]2C(=O)N[C@@H](CO)C(N)=O)NC(=O)[C@H](CC(C)C)NC(=O)[C@H](CC(C)C)NC(=O)[C@H](Cc2ccc(O)cc2)NC(=O)[C@H](CCC(=O)O)NC1=O` [TG61] has an EC50 (GLP-1R) of 264 pM, an EC50 (GIPR [1]) of 12.6 pM and an EC50 (GCGR [2]) of 268 pM. The EC50 (GIPR [3]) was 5.9 pM and the EC50 (GCGR [4]) was 12.4 pM.

Work on `CC[C@H](C)[C@H](NC(=O)[C@H](Cc1ccccc1)NC(=O)[C@H](C)NC(=O)[C@@H]1CSCC(=O)NCCN(C(=O)CCC(=O)NCCOCCOCC(=O)NCCOCCOCC(=O)NCCCC[C@H](NC(=O)CCCCCCCCCCCCCCCCCCC(=O)O)C(=O)O)CCNC(=O)CSC[C@H](NC(=O)[C@](C)(CCCCN)NC(=O)[C@H](CC(=O)O)NC(=O)[C@H](CC(C)C)NC(=O)[C@](C)(CC(C)C)NC(=O)[C@@H](NC(=O)[C@](C)(CO)NC(=O)[C@H](Cc2ccc(O)cc2)NC(=O)[C@H](CC(=O)O)NC(=O)[C@H](CO)NC(=O)[C@@H](NC(=O)[C@H](Cc2ccccc2F)NC(=O)[C@@H](NC(=O)CNC(=O)[C@H](CCC(N)=O)NC(=O)C(C)(C)NC(=O)[C@@H](N)Cc2ccc(O)cc2)[C@@H](C)O)[C@@H](C)O)[C@@H](C)CC)C(=O)N[C@@H](C)C(=O)N[C@@H](CCC(N)=O)C(=O)N1)C(=O)N[C@@H](CCC(=O)O)C(=O)N[C@@H](Cc1ccc(O)cc1)C(=O)N[C@@H](CC(C)C)C(=O)N[C@@H](CC(C)C)C(=O)N[C@@H](C)C(=O)NCC(=O)NCC(=O)N1CCC[C@H]1C(=O)N[C@@H](CO)C(=O)N[C@@H](CO)C(=O)NCC(=O)N[C@@H](C)C(=O)N1CCC[C@H]1C(=O)N1CCC[C@H]1C(=O)N1CCC[C@H]1C(=O)N[C@@H](CO)C(N)=O` [TG62] (H-Y[Aib]QGT[Phe(2-F)]TSDY[αMeS]I[αMeL]LD[αMeK]CAQCAFIEYLLAGGPSSGAPPPS-NH2; linker 17-20 via X1) yielded an EC50 (GLP-1R) of 371 pM, an EC50 (GIPR [1]) of 27.9 pM and an EC50 (GCGR [2]) of 783 pM. It also gave an EC50 (GIPR [3]) of 6 pM and an EC50 (GCGR [4]) of 62.2 pM.
